Laboratory results as given in PubChem BioAssay (NCI).
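At the GI50, growth is halved. TGI is the concentration that stops growth completely.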

Tests used:
Experiment in all cases: NCI anticancer screen, dose series, 384-well format
786-0 renal = system: 786-0 renal
A498 renal = system: A498 renal
BT-549 breast = system: BT-549 breast
CAKI-1 renal = system: CAKI-1 renal
CCRF-CEM leukemia = system: CCRF-CEM leukemia
DU-145 prostate = system: DU-145 prostate
EKVX NSCLC = system: EKVX NSCLC
HCC-2998 colon = system: HCC-2998 colon
HCT-116 colon = system: HCT-116 colon
HL-60(TB) leukemia = system: HL-60(TB) leukemia
HOP-62 NSCLC = system: HOP-62 NSCLC
HOP-92 NSCLC = system: HOP-92 NSCLC
HS 578T breast = system: HS 578T breast
HT29 colon = system: HT29 colon
IGROV1 ovarian = system: IGROV1 ovarian
K-562 leukemia = system: K-562 leukemia
LOX IMVI melanoma = system: LOX IMVI melanoma
M14 melanoma = system: M14 melanoma
MALME-3M melanoma = system: MALME-3M melanoma
MCF7 breast = system: MCF7 breast
MDA-MB-231 breast = system: MDA-MB-231 breast
MDA-MB-435 melanoma = system: MDA-MB-435 melanoma
MDA-MB-468 breast = system: MDA-MB-468 breast
MOLT-4 leukemia = system: MOLT-4 leukemia
NCI-H226 lung = system: NCI-H226 lung
NCI-H23 lung = system: NCI-H23 lung
NCI-H322M lung = system: NCI-H322M lung
NCI-H460 NSCLC = system: NCI-H460 NSCLC
OVCAR-3 ovarian = system: OVCAR-3 ovarian
OVCAR-5 ovarian = system: OVCAR-5 ovarian
OVCAR-8 ovarian = system: OVCAR-8 ovarian
PC-3 prostate = system: PC-3 prostate
RPMI-8226 leukemia = system: RPMI-8226 leukemia
RXF 393 renal = system: RXF 393 renal
SF-295 CNS = system: SF-295 CNS
SF-539 CNS = system: SF-539 CNS
SK-MEL-2 melanoma = system: SK-MEL-2 melanoma
SK-MEL-5 melanoma = system: SK-MEL-5 melanoma
SK-OV-3 ovarian = system: SK-OV-3 ovarian
SN12C renal = system: SN12C renal
SNB-19 CNS = system: SNB-19 CNS
SNB-75 CNS = system: SNB-75 CNS
TK-10 renal = system: TK-10 renal
U251 glioblastoma = system: U251 glioblastoma
UACC-257 melanoma = system: UACC-257 melanoma
UACC-62 melanoma = system: UACC-62 melanoma
UO-31 renal = system: UO-31 renal

Nc1ncn(C2OC(CO)C(O)C2O)c(=O)n1 (stereo not drawn)
GI50 ([…]-0 renal): 1870 nM | TGI (786-0 renal): > 42300 nM | GI50 (A498 renal): 2500 nM | TGI (A498 renal): 11900 nM | GI50 (BT-549 breast): 694 nM | TGI (BT-549 breast): 3310 nM | GI50 (CAKI-1 renal): 466 nM | TGI (CAKI-1 renal): 4350 nM | GI50 (CCRF-CEM leukemia): 993 nM | TGI (CCRF-CEM leukemia): 3670 nM | GI50 (DU-145 prostate): 1100 nM | TGI (DU-145 prostate): 6530 nM | GI50 (EKVX NSCLC): 19500 nM | TGI (EKVX NSCLC): > 75800 nM | GI50 (HCC-2998 colon): 1580 nM | TGI (HCC-2998 colon): 5010 nM | GI50 (HCT-116 colon): 627 nM | TGI (HCT-116 colon): 2570 nM | GI50 (HL-60(TB) leukemia): 372 nM | TGI (HL-60(TB) leukemia): 806 nM | GI50 (HOP-62 NSCLC): 899 nM | TGI (HOP-62 NSCLC): 3510 nM | GI50 (HOP-92 NSCLC): 2360 nM | TGI (HOP-92 NSCLC): 30000 nM | GI50 (HS 578T breast): 1380 nM | TGI (HS 578T breast): 7120 nM | GI50 (HT29 colon): 3520 nM | TGI (HT29 colon): 30100 nM | GI50 (IGROV1 ovarian): 2610 nM | TGI (IGROV1 ovarian): 10300 nM | GI50 (K-562 leukemia): 657 nM | TGI (K-562 leukemia): 5410 nM | GI50 (LOX IMVI melanoma): 531 nM | TGI (LOX IMVI melanoma): 1850 nM | GI50 (M14 melanoma): 1450 nM | TGI (M14 melanoma): 9780 nM | GI50 (MALME-3M melanoma): 3300 nM | TGI (MALME-3M melanoma): 16700 nM | GI50 (MCF7 breast): 1560 nM | TGI (MCF7 breast): > 29800 nM | GI50 (MDA-MB-231 breast): 1550 nM | TGI (MDA-MB-231 breast): 17400 nM | GI50 (MDA-MB-435 melanoma): 1710 nM | TGI (MDA-MB-435 melanoma): 8650 nM | GI50 (MDA-MB-468 breast): 529 nM | TGI (MDA-MB-468 breast): 1410 nM | GI50 (MOLT-4 leukemia): 1320 nM | TGI (MOLT-4 leukemia): 2720 nM | GI50 (NCI-H226 lung): 4460 nM | TGI (NCI-H226 lung): 27800 nM | GI50 (NCI-H23 lung): 7250 nM | TGI (NCI-H23 lung): 28400 nM | GI50 (NCI-H322M lung): 1520 nM | TGI (NCI-H322M lung): 25700 nM | GI50 (NCI-H460 NSCLC): 239 nM | TGI (NCI-H460 NSCLC): 1270 nM | GI50 (OVCAR-3 ovarian): 1460 nM | TGI (OVCAR-3 ovarian): 5060 nM | GI50 (OVCAR-5 ovarian): 3220 nM | TGI (OVCAR-5 ovarian): 23000 nM | GI50 (OVCAR-8 ovarian): 1990 nM | TGI (OVCAR-8 ovarian): 17800 nM | GI50 (PC-3 prostate): 4160 nM | TGI (PC-3 prostate): 42100 nM | GI50 (RPMI-8226 leukemia): 138 nM | TGI (RPMI-8226 leukemia): 590 nM | GI50 (RXF 393 renal): 1250 nM | TGI (RXF 393 renal): 10900 nM | GI50 (SF-295 CNS): 2780 nM | TGI (SF-295 CNS): 16500 nM | GI50 (SF-539 CNS): 2070 nM | TGI (SF-539 CNS): 6090 nM | GI50 (SK-MEL-2 melanoma): 911 nM | TGI (SK-MEL-2 melanoma): 2850 nM | GI50 (SK-MEL-5 melanoma): 628 nM | TGI (SK-MEL-5 melanoma): 2120 nM | GI50 (SK-OV-3 ovarian): 3180 nM | TGI (SK-OV-3 ovarian): > 27700 nM | GI50 (SN12C renal): 1580 nM | TGI (SN12C renal): 35700 nM | GI50 (SNB-19 CNS): 4470 nM | TGI (SNB-19 CNS): > 42200 nM | GI50 (SNB-75 CNS): 2230 nM | GI50 (TK-10 renal): 2300 nM | TGI (TK-10 renal): 30500 nM | GI50 (U251 glioblastoma): 1420 nM | TGI (U251 glioblastoma): > 33200 nM | GI50 (UACC-257 melanoma): 6880 nM | TGI (UACC-257 melanoma): 33300 nM | GI50 (UACC-62 melanoma): 561 nM | TGI (UACC-62 melanoma): 2780 nM | GI50 (UO-31 renal): 2500 nM | TGI (UO-31 renal): 15100 nM
